Test [1] has as its target T1, SARS-CoV-2 PLpro (nsp3 1564–1878) (Severe acute respiratory syndrome coronavirus 2, UniProt P0DTD1). Kind of test: biochemical. The arrangement: FRET-quenched peptide (Pro3) cleavage by PLpro, 10 min pre-incubation, slope over 20 min, normalised to no-compound control. Conditions: low concentration screen, read-out: % of control remaining.
Test [2] addresses T1, SARS-CoV-2 PLpro (nsp3 1564–1878). Kind of test: biochemical. Details: FRET-quenched peptide (Pro3) cleavage by PLpro, 10 min pre-incubation, slope over 20 min, normalised to no-compound control. Conditions: high concentration screen, read-out: % of control remaining.

Each structure is given as a SMILES string. Structures can show the parent of a compound that is named as a salt. Where two headings read alike, the source gives them in different places.

Consider `COc1cc2c(Nc3ccc(NC(=O)c4ccccc4)cc3)ncnc2cc1OCCCN1CCOCC1` [ZM 447439 - N-[4-[[6-Methoxy-7-[3-(4-morpholinyl)propoxy]-4-quinazolinyl]amino]phenyl]benzamide], for which, in test [1] (Well no.=2534), the remaining activity at 1.25 µM stood at 97.3%. Moreover, in test [2] (Well no.=2534), the remaining activity at 3.75 µM turned out to be 96.9%.
Take `CN(C)c1ccc(/C=C2\C(=O)Nc3ccccc32)cc1` [SU 4312 - 3-[[4-(dimethylamino)phenyl]methylene]-1,3-dihydro-2H-indol-2-one]: in test [1] (Well no.=2430), the remaining activity at 1.25 µM was determined as 106%. In addition, the remaining activity at 3.75 µM in test [2] (Well no.=2430) was 109%.
For the compound `COc1ccccc1N1CCN(CCCNc2cc(=O)n(C)c(=O)n2C)CC1` [Urapidil hydrochloride], the remaining activity at 1.25 µM in test [1] (Well no.=1476) is 98.2%. In test [2] (Well no.=1476), the remaining activity at 3.75 µM is 97.2%.
For the compound `Clc1ccc(Nc2nnc(Cc3ccncc3)c3ccccc23)cc1` [Vatalanib], the remaining activity at 1.25 µM in test [1] (Well no.=1619) amounted to 97%. Further, the remaining activity at 3.75 µM in test [2] (Well no.=1619) was determined as 95.2%.
In the case of `CCN1C[C@]2(COC)CC[C@H](OC)[C@@]34C1[C@]1(OCO[C@@]15C[C@H](OC)[C@H]1C[C@@H]3[C@@H]5[C@H]1OC)[C@@H](O)[C@H]24` [Delcorine], the remaining activity at 1.25 µM in test [1] (Well no.=3109) stood at 98.2%. The remaining activity at 3.75 µM in test [2] (Well no.=3109) is 101%.
For the compound `CC(CCc1ccccc1)NCC(O)c1ccc(O)c(C(N)=O)c1` (stereo not shown) [Labetalol hydrochloride], the remaining activity at 1.25 µM in test [1] (Well no.=975) is 102%. In test [2] (Well no.=975), the remaining activity at 3.75 µM was 101%.
Turning to `CN([C@@H](Cc1ccc(OS(=O)(=O)c2cccc3cnccc23)cc1)C(=O)N1CCN(c2ccccc2)CC1)S(=O)(=O)c1cccc2cnccc12` [KN-62], the remaining activity at 1.25 µM amounted to 97.4% in test [1] (Well no.=670) and 99.3% in test [1] (Well no.=2308). The remaining activity at 3.75 µM in test [2] (Well no.=670) came out at 95.8%; in test [2] (Well no.=2308), 99%.
On to `O=C(O)CCC/C=C\C[C@@H]1[C@@H](/C=C/[C@@H](O)COc2cccc(C(F)(F)F)c2)[C@H](O)C[C@@H]1O` (racemic) [Fluprostenol], for which the remaining activity at 1.25 µM in test [1] (Well no.=4528) was 96.4%. Also, the remaining activity at 3.75 µM in test [2] (Well no.=4528) was 99.8%.
`CN(C)CC(c1ccc(O)cc1)C1(O)CCCCC1` (stereo not shown) [Desvenlafaxine]: the remaining activity at 1.25 µM in test [1] (Well no.=5164) was 94.5%. For the same compound, in test [2] (Well no.=5164), the remaining activity at 3.75 µM came to 96.9%.
On to `c1ccc(C2CN3CCSC3=N2)cc1` (stereo not shown) [Tetramisole hydrochloride], for which the remaining activity at 1.25 µM in test [1] (Well no.=1521) was 99.3%. The remaining activity at 3.75 µM in test [2] (Well no.=1521) turned out to be 100%.
As to `CCCCCCCCCCCCC/C=C/[C@@H](O)[C@@H](N)CO` [Sphingosine], the remaining activity at 1.25 µM in test [1] (Well no.=4361) came out at 101%. In addition, the values for the remaining activity at 3.75 µM in test [2] (Well no.=1172) and in test [2] (Well no.=4361) were 104% and 93.6%, respectively.
In the case of `c1ccc2c(c1)N=C(N1CCNCC1)c1ccccc1N2` [DREADD agonist 21], the remaining activity at 1.25 µM in test [1] (Well no.=6943) amounted to 96.4%. The remaining activity at 3.75 µM in test [2] (Well no.=6943) stood at 100%.
Regarding `CC(C)NC[C@@H](C(=O)N1CCN(c2ncnc3c2[C@H](C)C[C@H]3O)CC1)c1ccc(Cl)cc1` [GDC-0068], in test [1] (Well no.=5131), the remaining activity at 1.25 µM came to 104%. For the same compound, the remaining activity at 3.75 µM in test [2] (Well no.=5131) came out at 106%.
With `COc1cc2nccc(Oc3ccc(NC(=O)Nc4cc(C)on4)c(Cl)c3)c2cc1OC` [Tivozanib], in test [1] (Well no.=2932), the remaining activity at 1.25 µM was 96.1%. Further, the remaining activity at 3.75 µM in test [2] (Well no.=2932) was found to be 99%.
For `CCCCS(=O)(=O)N[C@@H](Cc1ccc(OCCCCC2CCNCC2)cc1)C(=O)O` [Tirofiban hydrochloride monohydrate], the remaining activity at 1.25 µM in test [1] (Well no.=5469) is 95.9%. Further, the remaining activity at 3.75 µM in test [2] (Well no.=5469) turned out to be 99.6%.
For `CNCc1cc(-c2ccccc2F)n(S(=O)(=O)c2cccnc2)c1` [TAK-438], the remaining activity at 1.25 µM in test [1] (Well no.=4794) came out at 91.8%. In addition, the remaining activity at 3.75 µM in test [2] (Well no.=4794) worked out at 93%.
Take `CN1CCN(C2=Nc3cc(Cl)ccc3Nc3ccccc32)CC1` [Clozapine]: the figures for the remaining activity at 1.25 µM in test [1] (Well no.=182), in test [1] (Well no.=1813) and in test [1] (Well no.=6569) were 99.6%, 98.4% and 98.5%, respectively. Besides, the remaining activity at 3.75 µM is 96.2% in test [2] (Well no.=182), 95.3% in test [2] (Well no.=1813) and 97.3% in test [2] (Well no.=6569).
With `CN1CCc2cccc(Cl)c2CC1` [SKF 86466], the remaining activity at 1.25 µM in test [1] (Well no.=1214) amounted to 101%. Also, in test [2] (Well no.=1214), the remaining activity at 3.75 µM was determined as 97.9%.
On to `CC[C@@]1(O)C(=O)OCc2c1cc1n(c2=O)Cc2cc3c(CN(C)C)c(O)ccc3nc2-1` [Topotecan.HCl], for which the remaining activity at 1.25 µM in test [1] (Well no.=1964) amounted to 98.5%. Besides, the remaining activity at 3.75 µM in test [2] (Well no.=1964) is 97.5%.
As for `NNCc1cccc(O)c1` [3-Hydroxybenzylhydrazine dihydrochloride], the remaining activity at 1.25 µM in test [1] (Well no.=568) amounted to 104%. Also, the remaining activity at 3.75 µM in test [2] (Well no.=568) was 97.9%.
As to `CC1(C)C=C(CN2C/C(=C\c3ccc(F)cc3)C(=O)/C(=C/c3ccc(F)cc3)C2)C(C)(C)N1O` [HO-3867], in test [1] (Well no.=8518), the remaining activity at 1.25 µM worked out at 101%. The remaining activity at 3.75 µM in test [2] (Well no.=8518) stood at 102%.
On to `c1ccc2[nH]c(-c3cscn3)nc2c1` [Thiabendazole], for which the remaining activity at 1.25 µM in test [1] (Well no.=4622) was 100%. Also, the remaining activity at 3.75 µM in test [2] (Well no.=4622) is 98.1%.
As for `O[C@H]1[C@H]2[C@H](O)CCCN2C[C@H]1O` [Swainsonine], the remaining activity at 1.25 µM in test [1] (Well no.=3176) was 97.3%. Besides, the remaining activity at 3.75 µM in test [2] (Well no.=3176) stood at 100%.
Consider `CC(=O)O[C@]1(C(C)=O)CC[C@H]2[C@@H]3C=C(Cl)C4=CC(=O)CC[C@]4(C)[C@H]3CC[C@@]21C` [Chlormadinone Acetate], for which the remaining activity at 1.25 µM in test [1] (Well no.=2225) stood at 97.4%. In addition, the remaining activity at 3.75 µM in test [2] (Well no.=2225) came to 96.7%.
For `CC(C)C[C@H](NC(=O)CNC(=O)c1cc(Cl)ccc1Cl)B1OC(=O)C(CC(=O)O)(CC(=O)O)O1` [MLN9708], in test [1] (Well no.=4810), the remaining activity at 1.25 µM was 101%. Besides, the remaining activity at 3.75 µM in test [2] (Well no.=4810) was determined as 103%.
With `N#C/C(=C(/N)Sc1ccc(N)cc1)c1ccccc1C(F)(F)F`, the remaining activity at 1.25 µM in test [1] (Well no.=2480) worked out at 98.7%. For the same compound, the remaining activity at 3.75 µM in test [2] (Well no.=2480) stood at 98.3%.
Turning to `COC(=O)/C=C/C(=O)OC` [Dimethyl Fumarate], the remaining activity at 1.25 µM in test [1] (Well no.=5294) was determined as 93.6%. Further, the remaining activity at 3.75 µM in test [2] (Well no.=5294) was determined as 94.2%.
Turning to `CCCCC(C)(O)C/C=C/[C@H]1[C@H](O)CC(=O)[C@@H]1CCCCCCC(=O)OC` (mixture of isomers) [Misoprostol], the values for the remaining activity at 1.25 µM in test [1] (Well no.=2194) and in test [1] (Well no.=7473) were 99.5% and 104%, respectively. Besides, the remaining activity at 3.75 µM in test [2] (Well no.=2194) came out at 98%; in test [2] (Well no.=7473) it was 103%.
Regarding `CNNCc1ccc(C(=O)NC(C)C)cc1` [Procarbazine], the remaining activity at 1.25 µM in test [1] (Well no.=2145) turned out to be 104%. Further, the remaining activity at 3.75 µM in test [2] (Well no.=2145) was found to be 105%.

Values taken from article PMC8286840, “Identifying SARS-CoV-2 antiviral compounds by screening for small molecule inhibitors of Nsp3 papain-like protease” (Biochemical Journal, 2021).
